In patent US11332485B2, “Penicillin-binding protein inhibitors” (priority 2017, dated 2022):

Assays:
[1] = system: E. coli DH5α/pLBII-CTX-M15; test: Broth microdilution MIC assay, engineered strain producing CTX-M15; assay type: cell-based, Escherichia coli; conditions: Escherichia coli, read-out: E. coli DH5α/pLBII-CTX-M15 Microbiological Activity (MIC)
Description: (§1) To determine the ability of test compounds to potentiate the inhibition of the growth of bacterial strains, classic cell based broth microdilution MIC assays were employed. MIC assays are performed according to CLSI methods except where otherwise noted (CLSI, 2011 and CLSI, 2009). The reference strain S. aureus ATCC 29213 and the hyper-permeable E. coli 901C were used to determine the ability of the PBP compounds to inhibit bacterial growth. Briefly, cryo-preserved bacterial cultures of clinical strains are streaked for isolation on appropriate agar medium, in this case Mueller Hinton II agar. Following incubation to allow formation of colonies these plates are sealed with parafilm and stored refrigerated for up to two weeks. For preparation of assay inocula and to ensure low variability, at least 5 colonies are picked from the agar plates with an inoculating loop and aseptically transferred to a culture tube containing 3 mL of Mueller-Hinton Broth (supplemented with divalent cations to required levels based on Manufacturers' certification). The broth culture is grown for 3-5 hours at 37° C. with shaking at 200 rpm. Meanwhile, 2-fold serial dilutions of test compounds are conducted in a 96 well plate with a final volume of 75 μL per well at 2-fold the final desired concentration. After the dilution plates are set up the growing cultures are then diluted in a cuvette containing MH II broth and the optical density is measured at 600 nm. Inocula are diluted such that 75 μL of this culture in Mueller-Hinton Broth results in a starting bacterial concentration of 5×10^5 CFU/mL when added to the dilution plates. The plates are incubated 16-20 hours at 37° C. The MIC is read visually as the lowest concentration well with no bacterial growth.
(§2) To determine if test compounds were affected by CTX-M15, the most abundant extended spectrum β-lactamase in clinical settings worldwide, the inhibition of the growth of an engineered strain of Escherichia coli harboring CTX-M15 was tested. This strain was constructed by cloning the gene encoding CTX-M15 into the NdeI and BamHI restriction endonuclease sites of plasmid pLBII, placing the gene(s) under the control of the Lac promoter. The constructed expression plasmid for CTX-M15 was used to transform competent E. coli DH5a cells to make the engineered strain, including an empty pLBII vector control strain. The classic cell based broth microdilution MIC assay was employed as described above with the addition of control antibiotics, known to be degraded by β-lactamases (Ceftazidime, piperacillin and piperacillin+tazobactam).

E. coli DH5α/pLBII = test: Broth microdilution MIC assay, empty vector control strain; assay type: cell-based; conditions: Escherichia coli, read-out: E. coli DH5α/pLBII Microbiological Activity (MIC)
Description: as §1, §2

S. aureus ATCC 29213 = test: Broth microdilution MIC assay; assay type: cell-based; conditions: Staphylococcus aureus, ATCC29213; broth microdilution, 16-20 hours at 37° C.; read-out: S. aureus 29213 MIC
Description: as §1

[2] = system: hyper-permeable E. coli 901C; test: Broth microdilution MIC assay; assay type: cell-based; conditions: Escherichia coli, read-out: E. coli 901C MIC
Description: as §1

SMILES	MIC [1]	MIC (E. coli DH5α/pLBII)	MIC (S. aureus ATCC 29213)	MIC [2]
CN(C)C(=O)NC(C(=O)N[C@H]1Cc2cccc(C(=O)O)c2OB1O)c1csc(N)n1 (stereo partly drawn) [Example 14, (3R)-3-(2-(2-aminothiazol-4-yl)-2-(3,3-dimethylureido)acetamido)-2-hydroxy-3,4-dihydro-2H-benzo[e][1,2]oxaborinine-8-carboxylic acid]	128 to 256 µg/mL	128 to 256 µg/mL	> 128 µg/mL	< 64 µg/mL
N[C@@H](C(=O)N[C@H]1Cc2cccc(C(=O)O)c2OB1O)c1ccccc1 [Example 2, (R)-3-((R)-2-amino-2-phenylacetamido)-2-hydroxy-3,4-dihydro-2H-benzo[e][1,2]oxaborinine-8-carboxylic acid]	> 512 µg/mL	> 512 µg/mL	> 128 µg/mL	> 128 µg/mL
CCN1CCN(C(=O)NC(C(=O)N[C@@H]2Cc3cccc(C(=O)O)c3OB2O)c2csc(N)n2)C(=O)C1=O (stereo partly drawn) [Example 33, (3S)-3-(2-(2-aminothiazol-4-yl)-2-(4-ethyl-2,3-dioxopiperazine-1-carboxamido)acetamido)-2-hydroxy-3,4-dihydro-2H-benzo[e][1,2]oxaborinine-8-carboxylic acid]	128 to 256 µg/mL	128 to 256 µg/mL	> 128 µg/mL	< 64 µg/mL
COC(=O)C(=O)NC(C(=O)N[C@H]1Cc2cccc(C(=O)O)c2OB1O)c1csc(N)n1 (stereo partly drawn) [Example 28, (3R)-3-(2-(2-aminothiazol-4-yl)-2-(2-methoxy-2-oxoacetamido)acetamido)-2-hydroxy-3,4-dihydro-2H-benzo[e][1,2]oxaborinine-8-carboxylic acid]	32 to 64 µg/mL	32 to 64 µg/mL	> 128 µg/mL	< 64 µg/mL
CCCN1CCN(C(=O)NC(C(=O)N[C@H]2Cc3cccc(C(=O)O)c3OB2O)c2csc(N)n2)C(=O)C1=O (stereo partly drawn) [Example 51, (3R)-3-(2-(2-aminothiazol-4-yl)-2-(2,3-dioxo-4-propylpiperazine-1-carboxamido)acetamido)-2-hydroxy-3,4-dihydro-2H-benzo[e][1,2]oxaborinine-8-carboxylic acid]	8 to 16 µg/mL	8 to 16 µg/mL	64 to 128 µg/mL	< 64 µg/mL
Nc1nc([C@H](N)C(=O)N[C@H]2Cc3cccc(C(=O)O)c3OB2O)cs1 [Example 9, (R)-3-((S)-2-amino-2-(2-aminothiazol-4-yl)acetamido)-2-hydroxy-3,4-dihydro-2H-benzo[e][1,2]oxaborinine-8-carboxylic acid]	128 to 256 µg/mL	128 to 256 µg/mL	> 128 µg/mL	> 128 µg/mL
CN(C)S(=O)(=O)NC(C(=O)N[C@H]1Cc2cccc(C(=O)O)c2OB1O)c1csc(N)n1 (stereo partly drawn) [Example 23, (3R)-3-(2-(2-aminothiazol-4-yl)-2-((N,N-dimethylsulfamoyl)amino)acetamido)-2-hydroxy-3,4-dihydro-2H-benzo[e][1,2]oxaborinine-8-carboxylic acid]	128 to 256 µg/mL	128 to 256 µg/mL	> 128 µg/mL	< 64 µg/mL
Nc1nc(C(NC(=O)Cc2ncccn2)C(=O)N[C@H]2Cc3cccc(C(=O)O)c3OB2O)cs1 (stereo partly drawn) [Example 21, (3R)-3-(2-(2-aminothiazol-4-yl)-2-(2-(pyrimidin-2-yl)acetamido)acetamido)-2-hydroxy-3,4-dihydro-2H-benzo[e][1,2]oxaborinine-8-carboxylic acid]	> 512 µg/mL	> 512 µg/mL	64 to 128 µg/mL	64 to 128 µg/mL
COc1ccc([C@@H](N)C(=O)N[C@H]2Cc3cccc(C(=O)O)c3OB2O)cc1 [Example 4, (R)-3-((R)-2-amino-2-(4-methoxyphenyl)acetamido)-2-hydroxy-3,4-dihydro-2H-benzo[e][1,2]oxaborinine-8-carboxylic acid]	> 512 µg/mL	> 512 µg/mL	> 128 µg/mL	> 128 µg/mL
CCN1CCN(C(=O)N[C@@H](C(=O)N[C@H]2Cc3cccc(C(=O)O)c3OB2O)[C@H](O)CO)C(=O)C1=O [Example 74, (R)-3-((2R,3S)-2-(4-ethyl-2,3-dioxopiperazine-1-carboxamido)-3,4-dihydroxybutanamido)-2-hydroxy-3,4-dihydro-2H-benzo[e][1,2]oxaborinine-8-carboxylic acid]	32 to 64 µg/mL	32 to 64 µg/mL	> 128 µg/mL	< 64 µg/mL
Nc1nc(C(NC(=O)C2CCCC(=O)N2)C(=O)N[C@H]2Cc3cccc(C(=O)O)c3OB2O)cs1 (stereo partly drawn) [Example 68, (3R)-3-(2-(2-aminothiazol-4-yl)-2-(6-oxopiperidine-2-carboxamido)acetamido)-2-hydroxy-3,4-dihydro-2H-benzo[e][1,2]oxaborinine-8-carboxylic acid]	128 to 256 µg/mL	128 to 256 µg/mL	> 128 µg/mL	< 64 µg/mL
Nc1nc(C(NC(=O)Nc2cccnc2)C(=O)N[C@H]2Cc3cccc(C(=O)O)c3OB2O)cs1 (stereo partly drawn) [Example 30, (3R)-3-(2-(2-aminothiazol-4-yl)-2-(3-(pyridin-3-yl)ureido)acetamido)-2-hydroxy-3,4-dihydro-2H-benzo[e][1,2]oxaborinine-8-carboxylic acid]	128 to 256 µg/mL	128 to 256 µg/mL	64 to 128 µg/mL	64 to 128 µg/mL
CCN1C(=O)CN(C(=O)NC(C(=O)N[C@H]2Cc3cccc(C(=O)O)c3OB2O)c2csc(N)n2)CC1=O (stereo partly drawn) [Example 64, (3R)-3-(2-(2-aminothiazol-4-yl)-2-(4-ethyl-3,5-dioxopiperazine-1-carboxamido)acetamido)-2-hydroxy-3,4-dihydro-2H-benzo[e][1,2]oxaborinine-8-carboxylic acid]	128 to 256 µg/mL	128 to 256 µg/mL	> 128 µg/mL	< 64 µg/mL
Nc1nc(C(NC(=O)c2nccs2)C(=O)N[C@H]2Cc3cccc(C(=O)O)c3OB2O)cs1 (stereo partly drawn) [Example 15, (3R)-3-(2-(2-aminothiazol-4-yl)-2-(thiazole-2-carboxamido)acetamido)-2-hydroxy-3,4-dihydro-2H-benzo[e][1,2]oxaborinine-8-carboxylic acid]	128 to 256 µg/mL	128 to 256 µg/mL	< 64 µg/mL	< 64 µg/mL
CCC(O)[C@H](NC(=O)N1CCN(CC)C(=O)C1=O)C(=O)N[C@H]1Cc2cccc(C(=O)O)c2OB1O (single isomer, unassigned) [Example 83]	128 to 256 µg/mL	128 to 256 µg/mL	> 128 µg/mL	64 to 128 µg/mL
Nc1nc(C(NC(=O)c2cscn2)C(=O)N[C@H]2Cc3cccc(C(=O)O)c3OB2O)cs1 (stereo partly drawn) [Example 16, (3R)-3-(2-(2-aminothiazol-4-yl)-2-(thiazole-4-carboxamido)acetamido)-2-hydroxy-3,4-dihydro-2H-benzo[e][1,2]oxaborinine-8-carboxylic acid]	128 to 256 µg/mL	128 to 256 µg/mL	64 to 128 µg/mL	< 64 µg/mL
COc1ccc([C@H](N)C(=O)N[C@H]2Cc3cccc(C(=O)O)c3OB2O)cc1 [Example 5, (R)-3-((S)-2-amino-2-(4-methoxyphenyl)acetamido)-2-hydroxy-3,4-dihydro-2H-benzo[e][1,2]oxaborinine-8-carboxylic acid]	> 512 µg/mL	> 512 µg/mL	64 to 128 µg/mL	> 128 µg/mL
COc1cc(C(=O)NC(C(=O)N[C@H]2Cc3cccc(C(=O)O)c3OB2O)c2csc(N)n2)ccn1 (stereo partly drawn) [Example 41, (3R)-3-(2-(2-aminothiazol-4-yl)-2-(2-methoxyisonicotinamido)acetamido)-2-hydroxy-3,4-dihydro-2H-benzo[e][1,2]oxaborinine-8-carboxylic acid]	> 512 µg/mL	> 512 µg/mL	64 to 128 µg/mL	< 64 µg/mL
